This is an account of results in patent US20260216164A1, “INDOLE COMPOUND DECOMPOSING IKZF2, AND USE THEREOF” (KOREA RESEARCH INSTITUTE OF CHEMICAL TECHNOLOGY, priority 2023, published 2026).

Where two headings read alike, the source gives them in different places.

Format in all cases: cell-based
In test [1] the target is Helios (IKZF2) (Homo sapiens, UniProt Q96SW2+Q9UKS7). Put plainly: Screening of Helios protein degraders using Nano-Glo HiBiT cell line (HiBiT-IKZF2). The settings on record: for remaining activity at 10 µM: compound 10 μM, read-out: HiBiT-IKZF2 Residual amount of Helios (%) 10 μM; for remaining activity at 10 µM / remaining activity at 1 µM: 6 hours, HiBiT-Helios knock-in Jurkat cells; for remaining activity at 1 µM: compound 1 μM, read-out: HiBiT-IKZF2 Residual amount of Helios (%) 1 μM. Background: HiBiT is a short tag that completes a luciferase, so light tracks the accessible tagged protein.
Sequence of Helios (IKZF2) (Q9UKS7 whole entry): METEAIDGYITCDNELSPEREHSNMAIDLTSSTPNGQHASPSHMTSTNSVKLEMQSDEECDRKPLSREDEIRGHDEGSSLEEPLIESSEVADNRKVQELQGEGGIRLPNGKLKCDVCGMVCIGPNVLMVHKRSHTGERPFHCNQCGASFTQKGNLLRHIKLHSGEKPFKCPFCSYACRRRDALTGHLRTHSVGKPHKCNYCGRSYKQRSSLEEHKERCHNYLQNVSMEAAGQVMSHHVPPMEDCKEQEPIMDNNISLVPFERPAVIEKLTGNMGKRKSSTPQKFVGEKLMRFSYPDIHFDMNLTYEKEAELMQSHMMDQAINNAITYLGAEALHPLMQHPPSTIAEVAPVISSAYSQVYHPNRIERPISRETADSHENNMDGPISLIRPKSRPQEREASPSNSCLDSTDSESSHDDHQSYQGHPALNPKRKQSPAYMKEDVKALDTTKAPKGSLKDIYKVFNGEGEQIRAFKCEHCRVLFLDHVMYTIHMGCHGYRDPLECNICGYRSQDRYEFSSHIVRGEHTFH
Sequence of Helios (IKZF2) (Q96SW2 whole entry): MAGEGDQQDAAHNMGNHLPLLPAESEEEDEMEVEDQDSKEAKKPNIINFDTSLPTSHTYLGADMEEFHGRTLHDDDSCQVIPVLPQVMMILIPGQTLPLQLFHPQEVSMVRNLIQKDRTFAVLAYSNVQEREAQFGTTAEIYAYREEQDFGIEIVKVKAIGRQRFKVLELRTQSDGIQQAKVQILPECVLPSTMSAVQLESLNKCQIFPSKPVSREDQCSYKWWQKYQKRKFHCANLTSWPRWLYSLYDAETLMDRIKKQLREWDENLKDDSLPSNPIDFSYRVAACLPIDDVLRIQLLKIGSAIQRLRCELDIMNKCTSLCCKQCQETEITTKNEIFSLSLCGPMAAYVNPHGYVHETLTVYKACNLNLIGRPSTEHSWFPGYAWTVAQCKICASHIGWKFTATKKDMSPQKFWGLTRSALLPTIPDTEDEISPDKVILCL
Sequence of Helios (IKZF2) (Q16531 whole entry partner): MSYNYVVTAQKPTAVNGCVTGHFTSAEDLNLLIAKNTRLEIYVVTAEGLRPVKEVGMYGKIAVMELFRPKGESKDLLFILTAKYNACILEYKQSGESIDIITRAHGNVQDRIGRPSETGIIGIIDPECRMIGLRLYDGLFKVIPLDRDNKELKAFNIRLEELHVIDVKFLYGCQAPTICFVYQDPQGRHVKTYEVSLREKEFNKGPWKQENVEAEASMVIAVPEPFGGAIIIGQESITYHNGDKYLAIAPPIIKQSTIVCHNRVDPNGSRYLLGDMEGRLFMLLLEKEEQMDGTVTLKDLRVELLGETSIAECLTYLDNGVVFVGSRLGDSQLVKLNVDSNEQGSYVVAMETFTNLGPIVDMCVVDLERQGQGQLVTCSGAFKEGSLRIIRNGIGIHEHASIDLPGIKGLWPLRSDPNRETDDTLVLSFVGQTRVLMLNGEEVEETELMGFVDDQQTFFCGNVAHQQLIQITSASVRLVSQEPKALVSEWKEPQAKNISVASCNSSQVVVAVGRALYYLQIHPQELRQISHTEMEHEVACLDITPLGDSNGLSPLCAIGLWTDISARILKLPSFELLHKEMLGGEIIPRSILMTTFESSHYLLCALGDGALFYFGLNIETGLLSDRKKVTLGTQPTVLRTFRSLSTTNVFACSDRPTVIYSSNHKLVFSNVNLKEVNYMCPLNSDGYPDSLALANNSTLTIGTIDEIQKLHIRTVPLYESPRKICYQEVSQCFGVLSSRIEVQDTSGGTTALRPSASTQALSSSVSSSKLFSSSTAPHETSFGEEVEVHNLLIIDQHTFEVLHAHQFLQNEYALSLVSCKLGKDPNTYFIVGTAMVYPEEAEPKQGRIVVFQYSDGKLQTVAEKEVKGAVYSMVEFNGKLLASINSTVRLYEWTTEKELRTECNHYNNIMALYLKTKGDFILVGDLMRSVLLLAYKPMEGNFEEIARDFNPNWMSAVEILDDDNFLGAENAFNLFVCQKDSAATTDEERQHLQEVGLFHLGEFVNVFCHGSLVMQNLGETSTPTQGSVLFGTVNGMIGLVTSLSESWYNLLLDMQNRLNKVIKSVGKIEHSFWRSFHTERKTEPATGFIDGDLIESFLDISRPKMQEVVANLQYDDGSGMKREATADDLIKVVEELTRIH

Test [2] concerns the target IKZF2 (Helios) (Homo sapiens, UniProt Q96SW2+Q9UKS7). Put plainly: Screening of DC50 (nM) and Dmax (%) using WB-IKZF2 cell line (Western blot). More on the design: endogenous in cells. The note with it: 6 hours; for DC50: read-out: WB-IKZF2 DC 50. On the procedure:
Experimental Example 2. Screening of DC50 (nM) and Dmax (%) Using WB-IKZF2 Cell Line
Candidate degraders were serially diluted and treated in cells cultured in complete medium, followed by incubation for 6 hours at 37° C. in a CO2 incubator. After 6 hours, the cells were harvested and lysed in RIPA buffer (150 mM NaCl, 1% Triton X-100, 1% sodium deoxycholate, 0.1% SDS, 50 mM Tris-HCl pH 7.5, and 2 mM EDTA) containing a protease inhibitor cocktail (Roche). The mixture was vortexed every 10 minutes and incubated on ice for 30 minutes, followed by centrifugation at 13,000 rpm for 10 minutes at 4° C. to isolate proteins. The isolated proteins were quantified using the Bradford assay (Bio-Rad, 5000006). Proteins were separated on 8% SDS-polyacrylamide gel, transferred onto nitrocellulose membranes (Amersham, 10600002), and incubated with primary antibodies at 4° C. for 18 hours. The following primary antibodies were used: anti-Helios rabbit monoclonal antibody (Cell Signaling, 42427, 1:3000) and anti-β-actin mouse monoclonal antibody (Santa Cruz, sc-47778, 1:5000). β-actin was used as a loading control. The next day, the membranes were washed with 1×TBST for 30 minutes and incubated with HRP-conjugated secondary antibodies corresponding to the primary antibodies at room temperature for 1 hour. The following secondary antibodies were used: anti-mouse IgG HRP-linked antibody (Sigma, A9044, 1:5000) and anti-rabbit IgG HRP-linked antibody (Cell Signaling, 7074, 1:5000). After washing with 1×TBST for 30 minutes, protein expression was visualized using the Pierce ECL Western blotting substrate (Thermo Fisher, 32106), and images were captured using a chemiluminescence image analysis system (GE Healthcare, AI680). The obtained images were quantified using the ImageJ software.
In general terms: A western blot detects proteins with antibodies after separation by electrophoresis.

For test [3], the target named is T1, Helios protein (Homo sapiens, UniProt Q96SW2+Q9UKS7).
T1 construct: endogenous in cells; host or cells: Jurkat cells
T1 sequence (Q9UKS7 whole entry): as the sequence (Q9UKS7 whole entry) above
T1 sequence (Q96SW2 whole entry): as the sequence (Q96SW2 whole entry) above
T1 sequence (Q16531 whole entry partner): as the sequence (Q16531 whole entry partner) above
The test is described as follows: Measurement of Helios protein degradation using Western blot analysis in Jurkat cells (FIG. 1). The settings on record: 6 hours. As for the experimental part: To confirm the degradation of Helios protein by the degrader, Western blot analysis was performed. Jurkat cells (5×10^6) in complete medium were treated with serial dilutions of the compound at 37° C. in a CO2 incubator for 6 hours.
After harvesting the cells, they were lysed in RIPA buffer (LPS solution, CRB002) containing a protease inhibitor cocktail (Roche). The lysates were incubated on ice for 30 minutes with vortexing every 10 minutes, followed by centrifugation at 13,000 rpm for 10 minutes at 4° C. to isolate the cell lysates. The lysates were quantified using the Bradford assay (Bio-Rad, 5000006).
30 μg of the lysates were separated by 8% SDS-polyacrylamide gel electrophoresis (SDS-PAGE), and the proteins were transferred to a nitrocellulose (NC) membrane (Amersham, 10600002), followed by incubation with primary antibodies at 4° C. for 18 hours. […]
After washing with 1×TBST for 30 minutes, protein expression was visualized using Pierce ECL Western blotting substrate (Thermo Fisher, 32106), and the images were acquired using a chemiluminescence imaging system (GE Healthcare, AI680). The resulting images were quantified using ImageJ software. The results of Helios protein degradation measured with compound 39 of the present disclosure and comparative compound DKY709 are shown in FIG. 1.

For test [4], the target named is IKZF2 over IKZF1, IKZF3, and IKZF4 (Homo sapiens, UniProt Q96SW2+Q9UKS7). The test is described as follows: Selective degradation of IKZF2 over IKZF1, IKZF3 and IKZF4.

Sequence of IKZF2 (Helios) (Q9UKS7 whole entry): as the sequence (Q9UKS7 whole entry) above
Sequence of IKZF2 (Helios) (Q96SW2 whole entry): as the sequence (Q96SW2 whole entry) above
Sequence of IKZF2 (Helios) (Q16531 whole entry partner): as the sequence (Q16531 whole entry partner) above

For the compound `Cc1c(C(=O)N2CCC(c3ccc4c(c3)CN(C3CCC(=O)NC3=O)C4=O)CC2)[nH]c2cc([N+](=O)[O-])ccc12` (stereo not shown) [Compound 55, 3-(5-(1-(3-methyl-6-nitro-1H-indole-2-carbonyl)piperidin-4-yl)-1-oxoinsoindolin-2-yl)piperidine-2,6-dione], the remaining activity at 10 µM in test [1] was determined as 5.1%. Further, in test [2], the Dmax came to 100%. In test [2] (class symbols), the DC50 was less than 0.01 µM.
Consider `COc1cc2c(C)c(C(=O)N3CCC(c4ccc5c(c4F)CN(C4CCC(=O)NC4=O)C5=O)CC3)[nH]c2cc1Cl` (stereo not shown) [Compound 108, 3-(5-(1-(6-chloro-5-methoxy-3-methyl-1H-indole-2-carbonyl)piperidin-4-yl)-4-fluoro-1-oxoinsoindolin-2-yl)piperidine-2,6-dione], for which, in test [1], the remaining activity at 1 µM came out at 8.3% and the remaining activity at 10 µM turned out to be 7.5%. The Dmax in test [2] is 100%. For the same compound, the DC50 in test [2] (class symbols) is less than 0.01 µM.
Consider `Cc1c(C(=O)N2CCC(c3ccc4c(c3)CN(C3CCC(=O)NC3=O)C4=O)CC2)[nH]c2cc(Cl)ccc12` (stereo not shown) [Compound 39, 3-(5-(1-(6-chloro-3-methyl-1H-indole-2-carbonyl)piperidin-4-yl)-1-oxoinsoindolin-2-yl)piperidine-2,6-dione], for which the “Helios protein degradation activity compared to comparative compound 1 (DKY709)” value in test [3] is “more than 1,000 fold”. In test [1], the remaining activity at 1 µM was determined as 6.6% and the remaining activity at 10 µM was determined as 5.5%. For the same compound, in test [2], the Dmax turned out to be 100%. Also, the DC50 in test [2] (numeric value) stood at 0.00019 µM.
On to `Cc1c(C(=O)N2CCC(c3ccc4c(c3)CN(C3CCC(=O)NC3=O)C4=O)CC2)[nH]c2cc([N+](=O)[O-])c(Cl)cc12` (stereo not shown) [Compound 84, 3-(5-(1-(5-chloro-3-methyl-6-nitro-1H-indole-2-carbonyl)piperidin-4-yl)-1-oxoinsoindolin-2-yl)piperidine-2,6-dione], for which the remaining activity at 10 µM in test [1] came to 9.7%. Also, the DC50 in test [2] (class symbols) fell in the range of 0.1 to 1 µM.
On to `O=C1CCC(N2Cc3cc(C4CCN(C(=O)c5[nH]c6cc(Cl)ccc6c5CN5CCOCC5)CC4)ccc3C2=O)C(=O)N1` (stereo not shown) [Compound 82, 3-(5-(1-(6-chloro-3-(morpholinomethyl)-1H-indole-2-carbonyl)piperidin-4-yl)-1-oxoinsoindolin-2-yl)piperidine-2,6-dione], for which the remaining activity at 10 µM in test [1] was 7.4%. The DC50 in test [2] (class symbols) lay in the range of 0.01 to 0.1 µM. For the same compound, the “selective degradation activity for IKZF2 over IKZF1, IKZF3, and IKZF4” value in test [4] is “selective degradation activity for IKZF2 over IKZF1, IKZF3, and IKZF4”.
With `Cc1c(C(=O)N2CCC(c3ccc4c(c3)CN(C3CCC(=O)NC3=O)C4=O)CC2)[nH]c2cc(OC(F)(F)F)ccc12` (stereo not shown) [Compound 53, 3-(5-(1-(3-methyl-6-(trifluoromethoxy)-1H-indole-2-carbonyl)piperidin-4-yl)-1-oxoinsoindolin-2-yl)piperidine-2,6-dione], the remaining activity at 10 µM in test [1] stood at 7.7%. The DC50 in test [2] (class symbols) lay in the range of 0.1 to 1 µM.
Take `Cc1c(C(=O)N2CCC(c3ccc4c(c3)CN(C3CCC(=O)NC3=O)C4=O)CC2)[nH]c2cc(O)ccc12` (stereo not shown) [Compound 47, 3-(5-(1-(6-hydroxy-3-methyl-1H-indole-2-carbonyl)piperidin-4-yl)-1-oxoinsoindolin-2-yl)piperidine-2,6-dione]: in test [1], the remaining activity at 1 µM came out at 27.9% and the remaining activity at 10 µM is 24%. For the same compound, the DC50 in test [2] (class symbols) lay within 0.1 to 1 µM.
As for `COc1cc2c(C)c(C(=O)N3CCC(c4ccc5c(c4)CN(C4CCC(=O)NC4=O)C5=O)CC3)[nH]c2cc1Cl` (stereo not shown) [Compound 71, 3-(5-(1-(6-chloro-5-methoxy-3-methyl-1H-indole-2-carbonyl)piperidin-4-yl)-1-oxoinsoindolin-2-yl)piperidine-2,6-dione], in test [1], the remaining activity at 1 µM turned out to be 14.2% and the remaining activity at 10 µM was found to be 25.3%. Besides, the Dmax in test [2] turned out to be 100%. Further, the DC50 in test [2] (class symbols) is less than 0.01 µM.
`Cc1c(C(=O)N2CCC(c3ccc4c(c3)CN(C3CCC(=O)NC3=O)C4=O)CC2)[nH]c2cc(C#N)ccc12` (stereo not shown) [Compound 52, 2-(4-(2-(2,6-dioxopiperidin-3-yl)-1-oxoindolin-5-yl)piperidine-1-carbonyl)-3-methyl-1H-indole-6-carbonitrile]: the remaining activity at 10 µM in test [1] was 10.8%. Moreover, the DC50 in test [2] (class symbols) lay within 0.01 to 0.1 µM.
As to `Cc1c(C(=O)N2CCC(c3ccc4c(c3)CN(C3CCC(=O)NC3=O)C4=O)CC2)[nH]c2cc([N+](=O)[O-])c(O)cc12` (stereo not shown) [Compound 86, 3-(5-(1-(5-hydroxy-3-methyl-6-nitro-1H-indole-2-carbonyl)piperidin-4-yl)-1-oxoinsoindolin-2-yl)piperidine-2,6-dione], the remaining activity at 10 µM in test [1] worked out at 9.9%. Besides, the DC50 in test [2] (class symbols) was 0.01 to 0.1 µM.
For `Cc1c(C(=O)N2CCC(c3ccc4c(c3)CN(C3CCC(=O)NC3=O)C4=O)CC2)[nH]c2cc(C(F)(F)F)ccc12` (stereo not shown) [Compound 48, 3-(5-(1-(3-methyl-6-(trifluoromethyl)-1H-indole-2-carbonyl)piperidin-4-yl)-1-oxoinsoindolin-2-yl)piperidine-2,6-dione] the same measures were 8.21% and 0.01 to 0.1 µM.
Consider `Cc1c(C(=O)N2CCC(c3cc4c(cc3F)C(=O)N(C3CCC(=O)NC3=O)C4)CC2)[nH]c2cc(Cl)ccc12` (stereo not shown) [Compound 90, 3-(5-(1-(6-chloro-3-methyl-1H-indole-2-carbonyl)piperidin-4-yl)-6-fluoro-1-oxoinsoindolin-2-yl)piperidine-2,6-dione], for which the remaining activity at 10 µM in test [1] came out at 6.2%. In addition, in test [2], the Dmax worked out at 100%. Besides, the DC50 in test [2] (class symbols) was less than 0.01 µM.
`Cc1c(C(=O)N2CCC(c3ccc4c(c3)C(=O)N(C3CCC(=O)NC3=O)C4=O)CC2)[nH]c2cc([N+](=O)[O-])ccc12` (stereo not shown) [Compound 95, 2-(2,6-dioxopiperidin-3-yl)-5-(1-(3-methyl-6-nitro-1H-indole-2-carbonyl)piperidin-4-yl)isoindoline-1,3-dione]: in test [1], the remaining activity at 10 µM was 10.9%. The DC50 in test [2] (class symbols) lay in the range of 0.01 to 0.1 µM.
In the case of `CCNC(=O)Nc1ccc2c(C)c(C(=O)N3CCC(c4ccc5c(c4)CN(C4CCC(=O)NC4=O)C5=O)CC3)[nH]c2c1` (stereo not shown) [Compound 75, 1-(2-(4-(2-(2,6-dioxopiperidin-3-yl)-1-oxoindolin-5-yl)piperidine-1-carbonyl)-3-methyl-1H-indol-6-yl)-3-ethylurea], in test [1], the remaining activity at 1 µM was determined as 29.6% and the remaining activity at 10 µM is 19%. Besides, in test [2] (class symbols), the DC50 lay in the range of 0.1 to 1 µM.
For `Cc1c(C(=O)N2C3CCC2CC(c2ccc4c(c2)CN(C2CCC(=O)NC2=O)C4=O)C3)[nH]c2cc(Cl)ccc12` (stereo not shown) [Compound 58, 3-(5-(8-(6-chloro-3-methyl-1H-indole-2-carbonyl)-8-azabicyclo[3.2.1]octan-3-yl)-1-oxoinsoindolin-2-yl)piperidine-2,6-dione], in test [1] (as shown in Table 1), the “IKZF2 degradation activity (in words, comment on Table 1)” value is recorded as “excellent IKZF2 degradation activity”. The remaining activity at 10 µM in test [1] came out at 5.2%. The DC50 in test [2] (class symbols) fell in the range of 0.01 to 0.1 µM.
Consider `Cc1c(C(=O)N2CCC(c3ccc4c(c3F)CN(C3CCC(=O)NC3=O)C4=O)CC2)[nH]c2cc([N+](=O)[O-])ccc12` (stereo not shown) [Compound 94, 3-(4-fluoro-5-(1-(3-methyl-6-nitro-1H-indole-2-carbonyl)piperidin-4-yl)-1-oxoinsoindolin-2-yl)piperidine-2,6-dione], for which, in test [1], the remaining activity at 10 µM came out at 8.5%. In test [2], this compound showed a Dmax of 100%. In addition, the DC50 in test [2] (class symbols) was less than 0.01 µM.
